Where two headings read alike, the source gives them in different places.
Tested on: IL-8
Experiment: Glucocorticoid transrepression assay, IL-8 inhibition (TR)
Assay type: cell-based
Conditions: Homo sapiens, NCl-H292 cells, TNFα 10 ng/ml; for Emax: read-out: IL-8 inhibition (TR) Emax % inhibition
Experimental: Human Lung epithelial cell line NCl-H292 cells were dissociated from stock flask using 0.05% trypsin/0.53 mM EDTA. Cells were suspended in complete medium and counted. Cells were plated in 96-well flat-bottom plates at 20K cells /well in 0.2 ml/well. Plates were incubated for 24-48 hours until cells were between 75-90% confluent. Medium was aspirated and replaced with medium containing various concentrations of steroids or antagonists. After 1 hour incubation at 37°, TNFα (10 ng/ml final concentration in 0.2 ml) was added and the cells incubated overnight. Control wells with and without TNF were included on each plate, as well as wells with TNF in addition to a maximum (10 μM) concentration of dexamethasone. The cell culture medium was sampled and IL-6 and IL-8 cytokine production was measured using the MSD Multi-Spot immunoassay.

Compound | IC50 (Table 2) | Emax (Table 2) | IC50 (Table 1) | Emax (Table 1)
CC12Cc3cnn(-c4ccc(F)cc4)c3C=C1CCC1C2[C@@H](O)CC2(C)C1CC[C@]2(O)C(=O)NCc1nc2ccccc2o1 (stereo partly shown) [Compound 20] | 0.06 to 20 nM | > 80% | – | –
Cn1ncc2c1C=C1CCC3C([C@@H](O)CC4(C)C3CC[C@]4(O)C(=O)CSc3nc4ccccc4n3C)C1(C)C2 (stereo partly shown) [Compound 20] | – | – | 66 to 400 nM | 60 to 70%
Cn1c(NC(=O)[C@@]2(O)CCC3C4CCC5=Cc6c(cnn6-c6ccc(F)cc6)CC5(C)C4[C@@H](O)CC32C)nc2ccccc21 (stereo partly shown) [Compound 21] | 0.06 to 20 nM | > 80% | – | –
Cn1ncc2c1C=C1CCC3C([C@@H](O)CC4(C)C3CC[C@]4(O)C(=O)CSc3nc4ccccc4s3)C1(C)C2 (stereo partly shown) [Compound 21] | – | – | – | < 60%
CC12Cc3cnn(-c4ccc(F)cc4)c3C=C1CCC1C2[C@@H](O)CC2(C)C1CC[C@]2(O)C(=O)N[C@@H](CO)Cc1ccc2ccccc2c1 (stereo partly shown) [Compound 22] | 0.06 to 20 nM | > 80% | – | –
Cn1ncc2c1C=C1CCC3C([C@@H](O)CC4(C)C3CC[C@]4(O)C(=O)CSc3nc4ccccc4o3)C1(C)C2 (stereo partly shown) [Compound 22] | – | – | 66 to 400 nM | < 60%
CC(NC(=O)[C@@]1(O)CCC2C3CCC4=Cc5c(cnn5-c5ccc(F)cc5)CC4(C)C3[C@@H](O)CC21C)c1nc2ccccc2s1 (stereo partly shown) [Compound 23] | 0.06 to 20 nM | > 80% | – | –
Cn1ncc2c1C=C1CCC3C([C@@H](O)CC4(C)C3CC[C@]4(O)C(=O)CSc3ccc4ccccc4n3)C1(C)C2 (stereo partly shown) [Compound 23] | – | – | 66 to 400 nM | 60 to 70%
CC12Cc3cnn(-c4ccc(F)cc4)c3C=C1CCC1C2[C@@H](O)CC2(C)C1CC[C@]2(O)C(=O)N[C@H](CO)Cc1ccccc1 (stereo partly shown) [Compound 24] | 0.06 to 20 nM | > 80% | – | –
Cn1ncc2c1C=C1CCC3C([C@@H](O)CC4(C)C3CC[C@]4(O)C(=O)CSc3nc4ccccc4[nH]3)C1(C)C2 (stereo partly shown) [Compound 24] | – | – | 66 to 400 nM | 70 to 80%
COc1ccc2sc(SCC(=O)[C@@]3(O)CCC4C5CCC6=Cc7c(cnn7C)CC6(C)C5[C@@H](O)CC43C)nc2c1 (stereo partly shown) [Compound 25] | – | – | – | < 60%
Cn1ncc2c1C=C1CCC3C([C@@H](O)CC4(C)C3CC[C@]4(O)C(=O)CSc3ncccn3)C1(C)C2 (stereo partly shown) [Compound 26] | – | – | – | < 60%
Cn1ncc2c1C=C1CCC3C([C@@H](O)CC4(C)C3CC[C@]4(O)C(=O)CSc3nc4cccnc4s3)C1(C)C2 (stereo partly shown) [Compound 28] | – | – | – | < 60%
Cn1ncc2c1C=C1CCC3C([C@@H](O)CC4(C)C3CC[C@]4(O)C(=O)CSc3nc4ncccc4o3)C1(C)C2 (stereo partly shown) [Compound 29] | – | – | 401 to 1000 nM | < 60%
Cn1ncc2c1C=C1CCC3C([C@@H](O)CC4(C)C3CC[C@]4(O)C(=O)CSc3cnc4ccccc4n3)C1(C)C2 (stereo partly shown) [Compound 30] | – | – | 66 to 400 nM | 60 to 70%
Cc1ccnc(SCC(=O)[C@@]2(O)CCC3C4CCC5=Cc6c(cnn6C)CC5(C)C4[C@@H](O)CC32C)n1 (stereo partly shown) [Compound 31] | – | – | – | < 60%
Cn1ncc2c1C=C1CCC3C([C@@H](O)CC4(C)C3CC[C@]4(O)C(=O)CSc3ccccn3)C1(C)C2 (stereo partly shown) [Compound 32] | – | – | – | < 60%
Cc1cccc(SCC(=O)[C@@]2(O)CCC3C4CCC5=Cc6c(cnn6C)CC5(C)C4[C@@H](O)CC32C)n1 (stereo partly shown) [Compound 33] | – | – | 66 to 400 nM | < 60%
Cn1c(SCC(=O)[C@@]2(O)CCC3C4CCC5=Cc6c(cnn6-c6ccccn6)CC5(C)C4[C@@H](O)CC32C)nc2ccccc21 (stereo partly shown) [Compound 34] | – | – | 66 to 400 nM | 60 to 70%
CC12Cc3cnn(-c4ccccn4)c3C=C1CCC1C2[C@@H](O)CC2(C)C1CC[C@]2(O)C(=O)CSc1nc2ccccc2s1 (stereo partly shown) [Compound 35] | – | – | 66 to 400 nM | 60 to 70%
CC12Cc3cnn(-c4ccccn4)c3C=C1CCC1C2[C@@H](O)CC2(C)C1CC[C@]2(O)C(=O)CSc1nc2ccccc2o1 (stereo partly shown) [Compound 36] | – | – | 0.06 to 20 nM | > 80%
CC12Cc3cnn(-c4ccccn4)c3C=C1CCC1C2[C@@H](O)CC2(C)C1CC[C@]2(O)C(=O)CSc1ccc2ccccc2n1 (stereo partly shown) [Compound 37] | – | – | – | < 60%
CC12Cc3cnn(-c4ccccn4)c3C=C1CCC1C2[C@@H](O)CC2(C)C1CC[C@]2(O)C(=O)CSc1nc2ccccc2[nH]1 (stereo partly shown) [Compound 38] | – | – | 401 to 1000 nM | 60 to 70%
COc1ccc2sc(SCC(=O)[C@@]3(O)CCC4C5CCC6=Cc7c(cnn7-c7ccccn7)CC6(C)C5[C@@H](O)CC43C)nc2c1 (stereo partly shown) [Compound 39] | – | – | – | < 60%
CC12Cc3cnn(-c4ccccn4)c3C=C1CCC1C2[C@@H](O)CC2(C)C1CC[C@]2(O)C(=O)CSc1ncccn1 (stereo partly shown) [Compound 40] | – | – | 66 to 400 nM | 60 to 70%
Cn1cnnc1SCC(=O)[C@@]1(O)CCC2C3CCC4=Cc5c(cnn5-c5ccccn5)CC4(C)C3[C@@H](O)CC21C (stereo partly shown) [Compound 41] | – | – | – | < 60%
CC12Cc3cnn(-c4ccccn4)c3C=C1CCC1C2[C@@H](O)CC2(C)C1CC[C@]2(O)C(=O)CSc1nc2cccnc2s1 (stereo partly shown) [Compound 42] | – | – | 66 to 400 nM | 70 to 80%

Compound | IC50 (Table 2) | Emax (Table 2) | IC50 (Table 1) | Emax (Table 1)
CC12Cc3cnn(-c4ccccn4)c3C=C1CCC1C2[C@@H](O)CC2(C)C1CC[C@]2(O)C(=O)CSc1nc2ncccc2o1 (stereo partly shown) [Compound 43] | – | – | 21 to 65 nM | 70 to 80%
CC12Cc3cnn(-c4ccccn4)c3C=C1CCC1C2[C@@H](O)CC2(C)C1CC[C@]2(O)C(=O)CSc1cnc2ccccc2n1 (stereo partly shown) [Compound 44] | – | – | 401 to 1000 nM | < 60%
Cc1ccnc(SCC(=O)[C@@]2(O)CCC3C4CCC5=Cc6c(cnn6-c6ccccn6)CC5(C)C4[C@@H](O)CC32C)n1 (stereo partly shown) [Compound 45] | – | – | 21 to 65 nM | > 80%
CC12Cc3cnn(-c4ccccn4)c3C=C1CCC1C2[C@@H](O)CC2(C)C1CC[C@]2(O)C(=O)CSc1ccccn1 (stereo partly shown) [Compound 46] | – | – | 66 to 400 nM | 70 to 80%
Cc1cccc(SCC(=O)[C@@]2(O)CCC3C4CCC5=Cc6c(cnn6-c6ccccn6)CC5(C)C4[C@@H](O)CC32C)n1 (stereo partly shown) [Compound 47] | – | – | 66 to 400 nM | > 80%
Cn1c(SCC(=O)[C@@]2(O)CCC3C4CCC5=Cc6c(cnn6CCC#N)CC5(C)C4[C@@H](O)CC32C)nc2ccccc21 (stereo partly shown) [Compound 48] | – | – | 66 to 400 nM | < 60%
CC12Cc3cnn(CCC#N)c3C=C1CCC1C2[C@@H](O)CC2(C)C1CC[C@]2(O)C(=O)CSc1nc2ccccc2s1 (stereo partly shown) [Compound 49] | – | – | – | < 60%
CC12Cc3cnn(CCC#N)c3C=C1CCC1C2[C@@H](O)CC2(C)C1CC[C@]2(O)C(=O)CSc1nc2ccccc2o1 (stereo partly shown) [Compound 50] | – | – | 66 to 400 nM | 70 to 80%
CC12Cc3cnn(CCC#N)c3C=C1CCC1C2[C@@H](O)CC2(C)C1CC[C@]2(O)C(=O)CSc1ccc2ccccc2n1 (stereo partly shown) [Compound 51] | – | – | – | < 60%
CC12Cc3cnn(CCC#N)c3C=C1CCC1C2[C@@H](O)CC2(C)C1CC[C@]2(O)C(=O)CSc1nc2ccccc2[nH]1 (stereo partly shown) [Compound 52] | – | – | 401 to 1000 nM | < 60%
CC12Cc3cnn(CCC#N)c3C=C1CCC1C2[C@@H](O)CC2(C)C1CC[C@]2(O)C(=O)CSc1ncccn1 (stereo partly shown) [Compound 54] | – | – | 401 to 1000 nM | < 60%
Cn1cnnc1SCC(=O)[C@@]1(O)CCC2C3CCC4=Cc5c(cnn5CCC#N)CC4(C)C3[C@@H](O)CC21C (stereo partly shown) [Compound 55] | – | – | – | < 60%
CC12Cc3cnn(CCC#N)c3C=C1CCC1C2[C@@H](O)CC2(C)C1CC[C@]2(O)C(=O)CSc1nc2cccnc2s1 (stereo partly shown) [Compound 56] | – | – | – | < 60%
CC12Cc3cnn(CCC#N)c3C=C1CCC1C2[C@@H](O)CC2(C)C1CC[C@]2(O)C(=O)CSc1cnc2ccccc2n1 (stereo partly shown) [Compound 58] | – | – | – | < 60%
Cc1ccnc(SCC(=O)[C@@]2(O)CCC3C4CCC5=Cc6c(cnn6CCC#N)CC5(C)C4[C@@H](O)CC32C)n1 (stereo partly shown) [Compound 59] | – | – | 66 to 400 nM | 60 to 70%
Cc1cccc(SCC(=O)[C@@]2(O)CCC3C4CCC5=Cc6c(cnn6CCC#N)CC5(C)C4[C@@H](O)CC32C)n1 (stereo partly shown) [Compound 61] | – | – | 66 to 400 nM | 70 to 80%
CC12Cc3cnn(C(C)(C)C)c3C=C1CCC1C2[C@@H](O)CC2(C)C1CC[C@]2(O)C(=O)CSc1nc2ccccc2s1 (stereo partly shown) [Compound 62] | – | – | – | < 60%
Cn1c(SCC(=O)[C@@]2(O)CCC3C4CCC5=Cc6c(cnn6C(C)(C)C)CC5(C)C4[C@@H](O)CC32C)nc2ccccc21 (stereo partly shown) [Compound 63] | – | – | – | < 60%
CC12Cc3cnn(C(C)(C)C)c3C=C1CCC1C2[C@@H](O)CC2(C)C1CC[C@]2(O)C(=O)CSc1nc2cccnc2s1 (stereo partly shown) [Compound 64] | – | – | – | < 60%
CC12Cc3cnn(C(C)(C)C)c3C=C1CCC1C2[C@@H](O)CC2(C)C1CC[C@]2(O)C(=O)CSc1nc2ncccc2o1 (stereo partly shown) [Compound 65] | – | – | – | < 60%
CC12Cc3cnn(C(C)(C)C)c3C=C1CCC1C2[C@@H](O)CC2(C)C1CC[C@]2(O)C(=O)CSc1ccccn1 (stereo partly shown) [Compound 66] | – | – | – | < 60%
CC12Cc3cnn(C(C)(C)C)c3C=C1CCC1C2[C@@H](O)CC2(C)C1CC[C@]2(O)C(=O)CSc1ccc2ccccc2n1 (stereo partly shown) [Compound 67] | – | – | – | < 60%
CC12Cc3cnn(C(C)(C)C)c3C=C1CCC1C2[C@@H](O)CC2(C)C1CC[C@]2(O)C(=O)CSc1nc2ccccc2[nH]1 (stereo partly shown) [Compound 68] | – | – | – | < 60%
CC12Cc3cnn(C4CCOCC4)c3C=C1CCC1C2[C@@H](O)CC2(C)C1CC[C@]2(O)C(=O)CSc1nc2ccccc2s1 (stereo partly shown) [Compound 69] | – | – | 66 to 400 nM | 70 to 80%
Cn1c(SCC(=O)[C@@]2(O)CCC3C4CCC5=Cc6c(cnn6C6CCOCC6)CC5(C)C4[C@@H](O)CC32C)nc2ccccc21 (stereo partly shown) [Compound 70] | – | – | 21 to 65 nM | > 80%
CC12Cc3cnn(C4CCOCC4)c3C=C1CCC1C2[C@@H](O)CC2(C)C1CC[C@]2(O)C(=O)CSc1nc2ncccc2o1 (stereo partly shown) [Compound 72] | – | – | 21 to 65 nM | > 80%

Source: US20120171126A1, “NOVEL [3,2-c] HETEROARYL STEROIDS AS GLUCOCORTICOID RECEPTOR AGONISTS COMPOSITIONS AND USES THEREOF” (priority 2009, published 2012)
